Like-named read-outs stand apart in the source and are kept apart here.
Legend:
[1] = system: iPS(Foreskin)-4-derived d8 HPTC-like cells
PTC in humans = conditions: cited from earlier work
[2] = 1 μg/ml, overnight (16 h), qPCR, normalized to vehicle control (=1), mean +/- s.d., n=3
[3] = 10 μg/ml, overnight (16 h), qPCR, normalized to vehicle control (=1), mean +/- s.d., n=3
[4] = 100 μg/ml, overnight (16 h), qPCR, normalized to vehicle control (=1), mean +/- s.d., n=3
[5] = 1,000 μg/ml, overnight (16 h), qPCR, normalized to vehicle control (=1), mean +/- s.d., n=3

Row | IL6 Expression Levels ([1]; human, 16 h, 1 μg/ml) | IL8 Expression Levels ([1]; human, 16 h, 1 μg/ml) | IL6 Expression Levels ([1]; human, 16 h, 10 μg/ml) | IL8 Expression Levels ([1]; human, 16 h, 10 μg/ml) | IL6 Expression Levels ([1]; human, 16 h, 100 μg/ml) | IL8 Expression Levels ([1]; human, 16 h, 100 μg/ml) | IL6 Expression Levels ([1]; human, 16 h, 1000 μg/ml) | IL8 Expression Levels ([1]; human, 16 h, 1000 μg/ml) | Structure (SMILES) | IL6 Expression Levels [1, 2] | IL8 Expression Levels [1, 2] | IL6 Expression Levels [1, 3] | IL8 Expression Levels [1, 3] | IL6 Expression Levels [1, 4] | IL8 Expression Levels [1, 4] | IL6 Expression Levels [1, 5] | IL8 Expression Levels [1, 5] | other results
1 | 1.9 ± 0.2 | 0.8 ± 0.2 | 14.1 ± 1.2 | 255.7 ± 28.2 | 29.0 ± 1.2 | 3,284.1 ± 1,069.3 | 26.6 ± 4.3 | 3,852.3 ± 309.9 | COc1ccc(C[C@H](N)C(=O)N[C@H]2[C@@H](O)[C@H](n3cnc4c(N(C)C)ncnc43)O[C@@H]2CO)cc1 [Puromycin] | – | – | – | – | – | – | – | – | –
2 | – | – | – | – | – | – | – | – | Cl[C@H]1[C@H](Cl)[C@@H](Cl)[C@@H](Cl)[C@H](Cl)[C@H]1Cl [Lindane] | – | – | – | – | – | – | – | – | nephrotoxicity / toxicity for PTC in humans (PTC in humans): nephrotoxicants that do not damage PTC directly
3 | 1.2 ± 0.1 | 1.2 ± 1.2 | 1.3 ± 0.1 | 1.2 ± 0.3 | 1.2 ± 0.1 | 2.4 ± 0.9 | 1.4 ± 0.2 | 6.1 ± 0.5 | CCC[C@@H]1C[C@@H](C(=O)N[C@@H]([C@H]2O[C@H](SC)[C@H](O)[C@@H](O)[C@H]2O)[C@@H](C)O)N(C)C1 [Lincomycin] | – | – | – | – | – | – | – | – | –
4 | 1.2 ± 0.1 | 0.5 ± 0.1 | 1.5 ± 0.3 | 0.6 ± 0.2 | 1.3 ± 0.2 | 0.4 ± 0.1 | 1.4 ± 0.4 | 1.6 ± 0.2 | C[C@H]1O[C@H](O[C@H]2[C@H](O)[C@@H](O)[C@@H](O[C@H]3[C@H](O)[C@@H](O)C(O)O[C@@H]3CO)O[C@@H]2CO)[C@H](O)[C@@H](O)[C@@H]1N[C@H]1C=C(CO)[C@@H](O)[C@H](O)[C@H]1O (stereo partly shown) [Acarbose] | – | – | – | – | – | – | – | – | –
5 | – | – | – | – | – | – | – | – | COc1cccc2c1cc([N+](=O)[O-])c1c(C(=O)O)cc3c(c12)OCO3 [Aristolochic acid] | 3.9 ± 0.5 | 5.0 ± 0.8 | 3.3 ± 0.2 | 4.8 ± 0.6 | 7.3 ± 1.6 | 43.5 ± 7.2 | 9.3 ± 0.5 | 1.6 ± 0.9 | –
6 | 1.6 ± 0.1 | 1.6 ± 0.6 | 1.9 ± 0.3 | 3.1 ± 1.5 | 1.7 ± 0.2 | 2.5 ± 0.6 | 1.9 ± 0.2 | 4.9 ± 1.9 | NCC(=O)O [Glycine] | – | – | – | – | – | – | – | – | –
7 | – | – | – | – | – | – | – | – | [Cl][Cu][Cl] [Copper (II) chloride] | 1.2 ± 0.1 | 7.2 ± 0.6 | 2.2 ± 0.2 | 67.1 ± 18.1 | 22.5 ± 2.2 | 58.2 ± 3.2 | 13.4 ± 0.0 | – | –
8 | 6.2 ± 0.7 | 7.4 ± 1.4 | 6.4 ± 0.3 | 9.2 ± 1.4 | 9.2 ± 1.2 | 18.3 ± 2.2 | 1.1 ± 0.2 | 5.7 ± 0.5 | O=c1[nH]cc(F)c(=O)[nH]1 [5-Fluorouracil] | – | – | – | – | – | – | – | – | –
9 | 1.3 ± 0.1 | 1.5 ± 0.1 | 1.3 ± 0.1 | 1.4 ± 0.1 | 1.6 ± 0.1 | 1.0 ± 0.5 | 2.8 ± 0.4 | 32.5 ± 1.4 | CC(C)[C@H](N)C(=O)OCCOCn1cnc2c(=O)[nH]c(N)nc21 [Valacyclovir] | – | – | – | – | – | – | – | – | –
10 | – | – | – | – | – | – | – | – | O=[As]O[As]=O (stereo not shown) [Arsenic (III) oxide] | 1.5 ± 0.1 | 1.2 ± 0.5 | 5.2 ± 0.1 | 4.2 ± 0.1 | 14.2 ± 2.1 | 1.5 ± 0.2 | 8.2 ± 0.3 | 3.9 ± 1.6 | –
11 | 1.4 ± 0.1 | 1.1 ± 0.4 | 1.5 ± 0.1 | 0.5 ± 0.1 | 1.2 ± 0.3 | 0.2 ± 0.0 | 1.0 ± 0.1 | 0.2 ± 0.0 | NC(=O)c1ncn([C@@H]2O[C@H](CO)[C@@H](O)[C@H]2O)n1 [Ribavirin] | – | – | – | – | – | – | – | – | –
12 | – | – | – | – | – | – | – | – | [K+].[K+].[O]=[Cr](=[O])([O-])[O][Cr](=[O])(=[O])[O-] [Potassium dichromate] | 1.2 ± 0.4 | 0.5 ± 0.0 | 1.0 ± 0.0 | 0.7 ± 0.1 | 3.3 ± 0.3 | 0.8 ± 0.0 | 3.7 ± 0.4 | 1.2 ± 0.0 | –
13 | – | – | – | – | – | – | – | – | [Bi+3].[Bi+3].[O-2].[O-2].[O-2] [Bismuth (III) oxide] | 1.2 ± 0.1 | 0.4 ± 0.1 | 1.3 ± 0.2 | 2.6 ± 0.2 | 2.1 ± 0.1 | 33.0 ± 1.6 | 3.6 ± 0.3 | 192.7 ± 18.4 | –
14 | – | – | – | – | – | – | – | – | CC1=C2C(=CO[C@H](C)[C@H]2C)C(O)=C(C(=O)O)C1=O [Citrinin] | – | – | – | – | – | – | – | – | nephrotoxicity / toxicity for PTC in humans (PTC in humans): directly toxic for PTC; increase of IL6 expression ([1]; human): ~6 fold; increase of IL8 expression ([1]; human): no increase in IL8 expression was observed
15 | – | – | – | – | – | – | – | – | [Cl][Au] [Gold (I) chloride] | 1.2 ± 0.2 | 0.9 ± 0.2 | 1.2 ± 0.1 | 0.9 ± 0.1 | 2.9 ± 0.2 | 2.0 ± 0.0 | 23.3 ± 0.4 | 1.2 ± 0.2 | –
16 | 7.2 ± 0.2 | 23.3 ± 3.1 | 7.0 ± 1.1 | 11.1 ± 0.8 | 5.3 ± 0.1 | 7.7 ± 4.7 | 0.7 ± 0.2 | 6.4 ± 2.1 | CCOc1ccc(NC(C)=O)cc1 [Phenacetin] | – | – | – | – | – | – | – | – | –
17 | – | – | – | – | – | – | – | – | CC(=O)[O-].CC(=O)[O-].[Pb+2] [Lead acetate] | 1.3 ± 0.3 | 0.4 ± 0.2 | 1.2 ± 0.3 | 1.3 ± 0.1 | 1.5 ± 0.1 | 5.0 ± 0.8 | 4.3 ± 0.8 | 29.4 ± 5.1 | –
18 | 6.6 ± 0.6 | 7.8 ± 0.4 | 6.1 ± 0.2 | 5.1 ± 0.6 | – | – | – | – | C=CC[C@@H]1/C=C(\C)C[C@H](C)C[C@H](OC)[C@H]2O[C@@](O)(C(=O)C(=O)N3CCCC[C@H]3C(=O)O[C@H](/C(C)=C/[C@@H]3CC[C@@H](O)[C@H](OC)C3)[C@H](C)[C@@H](O)CC1=O)[C@H](C)C[C@@H]2OC [Tacrolimus] | – | – | – | – | – | – | – | – | –
19 | 6.5 ± 0.8 | 9.8 ± 2.4 | 6.1 ± 0.4 | 6.9 ± 1.0 | 4.4 ± 0.4 | 1.9 ± 0.9 | 1.1 ± 0.1 | – | COc1ccc2[nH]cc(CCNC(C)=O)c2c1 [Melatonin] | – | – | – | – | – | – | – | – | –
20 | – | – | – | – | – | – | – | – | [Cl-].[Li+] [Lithium chloride] | – | – | – | – | – | – | – | – | nephrotoxicity / toxicity for PTC in humans (PTC in humans): nephrotoxicants that do not damage PTC directly
21 | – | – | – | – | – | – | – | – | CN[C@H](CC(C)C)C(=O)N[C@H]1C(=O)N[C@@H](CC(N)=O)C(=O)N[C@H]2C(=O)N[C@H]3C(=O)N[C@H](C(=O)N[C@H](C(=O)O)c4cc(O)cc(O)c4-c4cc3ccc4O)[C@H](O)c3ccc(c(Cl)c3)Oc3cc2cc(c3O[C@@H]2O[C@H](CO)[C@@H](O)[C@H](O)[C@H]2O[C@H]2C[C@](C)(N)[C@H](O)[C@H](C)O2)Oc2ccc(cc2Cl)[C@H]1O [Vancomycin] | 1.5 ± 0.3 | 0.7 ± 0.0 | 1.4 ± 0.1 | 0.6 ± 0.2 | 1.4 ± 0.1 | 2.9 ± 0.2 | 3.1 ± 0.2 | 98.5 ± 4.5 | –
22 | – | – | – | – | – | – | – | – | CC(=O)OCC1=C(C(=O)O)N2C(=O)[C@@H](NC(=O)CCC[C@@H](N)C(=O)O)[C@H]2SC1 [Cephalosporin C] | – | – | – | – | – | – | – | – | nephrotoxicity / toxicity for PTC in humans (PTC in humans): directly toxic for PTC
23 | – | – | – | – | – | – | – | – | [Cl][Cd][Cl] [Cadmium chloride] | 3.6 ± 0.4 | 15.0 ± 0.8 | 10.9 ± 0.4 | 7.6 ± 0.4 | 10.3 ± 1.6 | 4.4 ± 0.6 | 11.8 ± 0.5 | 20.5 ± 8.3 | –
24 | 1.3 ± 0.1 | 0.5 ± 0.1 | 1.3 ± 0.1 | 0.6 ± 0.1 | 1.4 ± 0.1 | 0.9 ± 0.3 | 2.7 ± 0.4 | 25.5 ± 1.5 | NC[C@H]1O[C@H](O[C@H]2[C@H](O)[C@@H](O[C@H]3O[C@H](CO)[C@@H](O)[C@H](N)[C@H]3O)[C@H](N)C[C@@H]2N)[C@H](N)C[C@@H]1O [Tobramycin] | – | – | – | – | – | – | – | – | –
25 | – | – | – | – | – | – | – | – | OCCO [Ethylene glycol] | – | – | – | – | – | – | – | – | nephrotoxicity / toxicity for PTC in humans (PTC in humans): nephrotoxicants that do not damage PTC directly
26 | 1.3 ± 0.0 | 0.8 ± 0.3 | 1.2 ± 0.1 | 1.2 ± 0.2 | 1.4 ± 0.2 | 0.5 ± 0.1 | 0.3 ± 0.1 | 0.1 ± 0.0 | CC(=O)Nc1ccc(O)cc1 [Acetaminophen] | – | – | – | – | – | – | – | – | –

Source: patent US10351827B2, “Method for differentiating induced pluripotent stem cells into renal proximal tubular cell-like cells” (priority 2013, dated 2019)
